Where two headings read alike, the source gives them in different places.
How the values were obtained:
Test in all cases: KINOMEscan Assay (DiscoverX)
Assay type in all cases: binding
Conditions in all cases: read-out: % DMSO Ctrl
[1] = target: T1, ADCK4 (Homo sapiens, UniProt Q96D53)
T1 construct: purchased DiscoverX
T1 sequence (Q96D53 1-544): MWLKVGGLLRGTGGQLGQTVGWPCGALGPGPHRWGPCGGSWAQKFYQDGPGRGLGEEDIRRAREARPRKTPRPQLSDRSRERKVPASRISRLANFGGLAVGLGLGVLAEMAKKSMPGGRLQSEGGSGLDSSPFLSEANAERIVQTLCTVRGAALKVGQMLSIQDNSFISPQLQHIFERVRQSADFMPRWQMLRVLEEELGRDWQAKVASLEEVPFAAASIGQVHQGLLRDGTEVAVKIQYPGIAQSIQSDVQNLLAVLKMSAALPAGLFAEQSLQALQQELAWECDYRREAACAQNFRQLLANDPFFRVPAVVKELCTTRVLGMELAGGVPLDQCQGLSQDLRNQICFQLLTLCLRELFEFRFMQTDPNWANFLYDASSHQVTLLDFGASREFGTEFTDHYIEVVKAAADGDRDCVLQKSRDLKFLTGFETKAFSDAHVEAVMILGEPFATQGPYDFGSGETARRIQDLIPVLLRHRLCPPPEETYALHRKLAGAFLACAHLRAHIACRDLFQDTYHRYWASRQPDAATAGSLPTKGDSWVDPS

[2] = target: T2, EGFR(L858R,T790M) (Homo sapiens, UniProt P00533, L858R/T790M)
T2 construct: purchased DiscoverX
T2 sequence (P00533 25-1210 T790M/L858R): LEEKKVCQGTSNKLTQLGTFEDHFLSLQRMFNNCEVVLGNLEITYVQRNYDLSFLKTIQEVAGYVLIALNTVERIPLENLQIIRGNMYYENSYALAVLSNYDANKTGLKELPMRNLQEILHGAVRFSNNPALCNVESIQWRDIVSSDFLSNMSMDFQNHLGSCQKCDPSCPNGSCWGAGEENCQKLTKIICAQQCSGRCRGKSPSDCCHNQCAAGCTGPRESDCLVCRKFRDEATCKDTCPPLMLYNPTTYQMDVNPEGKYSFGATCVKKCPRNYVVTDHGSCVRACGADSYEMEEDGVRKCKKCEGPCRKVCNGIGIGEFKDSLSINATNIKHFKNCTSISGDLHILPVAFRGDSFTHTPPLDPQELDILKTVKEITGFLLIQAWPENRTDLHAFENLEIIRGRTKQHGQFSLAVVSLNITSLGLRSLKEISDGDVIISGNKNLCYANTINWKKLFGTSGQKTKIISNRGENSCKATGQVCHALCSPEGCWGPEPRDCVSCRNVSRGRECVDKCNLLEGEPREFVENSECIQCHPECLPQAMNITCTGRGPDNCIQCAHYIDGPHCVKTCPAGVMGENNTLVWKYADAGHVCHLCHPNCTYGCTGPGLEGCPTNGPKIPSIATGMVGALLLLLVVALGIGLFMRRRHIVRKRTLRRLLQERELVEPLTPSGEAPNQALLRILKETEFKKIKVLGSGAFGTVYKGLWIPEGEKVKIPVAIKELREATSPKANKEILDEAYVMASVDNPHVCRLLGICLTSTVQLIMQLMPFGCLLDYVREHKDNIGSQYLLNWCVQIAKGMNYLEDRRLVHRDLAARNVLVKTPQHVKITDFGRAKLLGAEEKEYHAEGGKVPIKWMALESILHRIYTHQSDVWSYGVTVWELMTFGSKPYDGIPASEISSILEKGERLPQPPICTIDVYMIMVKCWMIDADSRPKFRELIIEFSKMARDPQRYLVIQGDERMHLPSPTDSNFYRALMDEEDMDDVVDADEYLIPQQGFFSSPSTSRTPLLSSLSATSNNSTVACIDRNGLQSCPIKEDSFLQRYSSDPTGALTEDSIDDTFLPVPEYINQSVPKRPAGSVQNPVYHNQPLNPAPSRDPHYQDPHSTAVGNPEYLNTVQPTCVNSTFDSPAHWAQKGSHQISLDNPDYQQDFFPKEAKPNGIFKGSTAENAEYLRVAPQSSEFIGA

[3] = target: T3, ROCK2 (Homo sapiens, UniProt O75116)
T3 construct: purchased DiscoverX
T3 sequence (O75116 whole entry): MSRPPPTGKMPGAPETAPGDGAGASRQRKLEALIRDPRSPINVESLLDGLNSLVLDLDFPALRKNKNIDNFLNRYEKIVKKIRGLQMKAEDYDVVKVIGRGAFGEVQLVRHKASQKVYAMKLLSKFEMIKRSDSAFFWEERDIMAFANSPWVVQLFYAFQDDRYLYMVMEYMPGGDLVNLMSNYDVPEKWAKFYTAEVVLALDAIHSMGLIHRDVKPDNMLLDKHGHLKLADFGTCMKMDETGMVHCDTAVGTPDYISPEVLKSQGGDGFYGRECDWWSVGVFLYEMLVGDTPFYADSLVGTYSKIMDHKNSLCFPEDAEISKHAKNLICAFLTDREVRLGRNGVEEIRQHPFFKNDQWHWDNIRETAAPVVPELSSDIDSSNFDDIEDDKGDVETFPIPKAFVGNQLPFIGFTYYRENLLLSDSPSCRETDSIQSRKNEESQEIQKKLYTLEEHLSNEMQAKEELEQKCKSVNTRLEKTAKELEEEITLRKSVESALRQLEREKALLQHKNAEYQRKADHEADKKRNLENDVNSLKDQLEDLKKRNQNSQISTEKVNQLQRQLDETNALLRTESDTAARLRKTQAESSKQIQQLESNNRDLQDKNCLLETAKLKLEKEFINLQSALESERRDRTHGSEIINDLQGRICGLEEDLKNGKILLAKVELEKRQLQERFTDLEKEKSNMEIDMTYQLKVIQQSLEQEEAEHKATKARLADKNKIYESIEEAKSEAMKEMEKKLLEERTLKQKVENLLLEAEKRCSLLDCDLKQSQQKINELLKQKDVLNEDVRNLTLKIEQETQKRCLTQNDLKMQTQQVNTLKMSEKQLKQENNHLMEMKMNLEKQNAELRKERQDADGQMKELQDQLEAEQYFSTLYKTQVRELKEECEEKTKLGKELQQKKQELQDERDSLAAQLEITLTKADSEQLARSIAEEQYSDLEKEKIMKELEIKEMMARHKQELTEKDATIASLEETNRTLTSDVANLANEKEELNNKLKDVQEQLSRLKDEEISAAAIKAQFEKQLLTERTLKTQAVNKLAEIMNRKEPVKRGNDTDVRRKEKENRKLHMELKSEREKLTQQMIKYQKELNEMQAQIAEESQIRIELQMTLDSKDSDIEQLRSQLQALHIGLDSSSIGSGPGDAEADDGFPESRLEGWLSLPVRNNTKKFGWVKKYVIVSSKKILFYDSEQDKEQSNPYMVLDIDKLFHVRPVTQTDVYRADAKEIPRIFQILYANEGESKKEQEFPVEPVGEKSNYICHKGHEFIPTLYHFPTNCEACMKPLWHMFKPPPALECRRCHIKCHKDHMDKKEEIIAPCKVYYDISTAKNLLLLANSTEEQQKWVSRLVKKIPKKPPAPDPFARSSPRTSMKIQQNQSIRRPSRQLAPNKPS

[4] = target: T4, PIK3C2G (Homo sapiens, UniProt O75747)
T4 construct: purchased DiscoverX
T4 sequence (O75747 1-1486): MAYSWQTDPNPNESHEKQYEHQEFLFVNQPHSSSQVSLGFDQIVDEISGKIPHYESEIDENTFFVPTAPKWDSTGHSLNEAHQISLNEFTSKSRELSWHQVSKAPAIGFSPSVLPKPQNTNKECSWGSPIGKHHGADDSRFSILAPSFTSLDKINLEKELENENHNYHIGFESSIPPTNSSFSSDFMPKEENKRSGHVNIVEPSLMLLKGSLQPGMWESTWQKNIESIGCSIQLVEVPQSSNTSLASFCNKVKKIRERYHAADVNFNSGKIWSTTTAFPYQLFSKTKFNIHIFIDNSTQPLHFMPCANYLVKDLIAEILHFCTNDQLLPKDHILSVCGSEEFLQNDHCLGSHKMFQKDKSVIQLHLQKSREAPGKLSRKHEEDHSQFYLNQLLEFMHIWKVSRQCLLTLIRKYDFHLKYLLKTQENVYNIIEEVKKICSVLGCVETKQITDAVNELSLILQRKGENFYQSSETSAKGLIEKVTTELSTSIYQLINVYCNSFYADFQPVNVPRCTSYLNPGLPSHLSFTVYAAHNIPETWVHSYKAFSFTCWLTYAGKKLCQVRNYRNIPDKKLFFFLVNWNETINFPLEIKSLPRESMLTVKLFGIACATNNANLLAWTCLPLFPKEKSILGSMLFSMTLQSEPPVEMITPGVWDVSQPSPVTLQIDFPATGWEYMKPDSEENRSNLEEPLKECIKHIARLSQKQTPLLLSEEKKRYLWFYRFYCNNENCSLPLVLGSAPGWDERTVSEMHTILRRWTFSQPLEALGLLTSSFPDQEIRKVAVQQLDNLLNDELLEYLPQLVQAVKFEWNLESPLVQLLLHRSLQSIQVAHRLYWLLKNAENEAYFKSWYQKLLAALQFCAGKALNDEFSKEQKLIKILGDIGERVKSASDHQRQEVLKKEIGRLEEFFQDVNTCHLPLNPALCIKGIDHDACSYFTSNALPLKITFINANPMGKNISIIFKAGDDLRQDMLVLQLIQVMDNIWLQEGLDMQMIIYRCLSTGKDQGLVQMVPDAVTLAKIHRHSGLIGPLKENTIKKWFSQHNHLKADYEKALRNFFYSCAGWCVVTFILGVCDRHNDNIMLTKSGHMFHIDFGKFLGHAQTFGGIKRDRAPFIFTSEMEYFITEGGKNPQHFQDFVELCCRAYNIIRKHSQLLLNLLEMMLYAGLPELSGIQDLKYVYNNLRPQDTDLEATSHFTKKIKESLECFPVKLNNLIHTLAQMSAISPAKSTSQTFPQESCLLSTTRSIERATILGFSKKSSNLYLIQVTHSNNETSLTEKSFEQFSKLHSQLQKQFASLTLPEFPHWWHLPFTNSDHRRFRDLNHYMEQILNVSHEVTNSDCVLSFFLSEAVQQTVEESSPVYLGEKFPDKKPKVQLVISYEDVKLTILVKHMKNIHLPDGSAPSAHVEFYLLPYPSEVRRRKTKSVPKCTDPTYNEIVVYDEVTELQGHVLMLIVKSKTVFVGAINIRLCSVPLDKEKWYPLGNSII

[5] = target: T5, CLK3 (Homo sapiens, UniProt P49761)
T5 construct: purchased DiscoverX
T5 sequence (P49761 whole entry): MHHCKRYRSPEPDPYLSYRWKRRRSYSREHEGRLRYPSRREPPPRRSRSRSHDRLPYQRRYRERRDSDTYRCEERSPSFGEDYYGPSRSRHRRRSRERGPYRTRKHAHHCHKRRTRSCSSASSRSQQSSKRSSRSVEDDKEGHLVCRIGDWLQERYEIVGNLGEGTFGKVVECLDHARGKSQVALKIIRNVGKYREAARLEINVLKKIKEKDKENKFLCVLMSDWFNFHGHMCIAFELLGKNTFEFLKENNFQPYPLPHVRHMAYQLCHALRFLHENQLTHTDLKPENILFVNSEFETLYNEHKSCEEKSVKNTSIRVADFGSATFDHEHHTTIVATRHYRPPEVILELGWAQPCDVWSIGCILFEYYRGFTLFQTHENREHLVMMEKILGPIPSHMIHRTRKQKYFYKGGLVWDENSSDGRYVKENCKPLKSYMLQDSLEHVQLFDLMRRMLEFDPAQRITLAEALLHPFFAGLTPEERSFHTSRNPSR

[6] = target: T6, SGK (Homo sapiens, UniProt O00141)
T6 construct: purchased DiscoverX
T6 sequence (O00141 1-431): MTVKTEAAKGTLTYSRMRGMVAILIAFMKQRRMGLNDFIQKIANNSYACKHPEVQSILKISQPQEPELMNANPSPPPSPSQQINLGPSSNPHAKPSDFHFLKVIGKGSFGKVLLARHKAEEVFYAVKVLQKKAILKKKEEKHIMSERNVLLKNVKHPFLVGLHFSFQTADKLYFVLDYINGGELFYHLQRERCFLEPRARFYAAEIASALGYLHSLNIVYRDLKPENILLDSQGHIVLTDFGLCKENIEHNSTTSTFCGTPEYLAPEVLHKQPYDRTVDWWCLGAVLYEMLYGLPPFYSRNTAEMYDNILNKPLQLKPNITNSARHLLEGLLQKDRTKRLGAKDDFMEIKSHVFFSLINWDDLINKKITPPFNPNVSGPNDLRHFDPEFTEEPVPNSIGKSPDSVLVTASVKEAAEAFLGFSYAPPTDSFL

[7] = target: T7, CSNK2A1 (Homo sapiens, UniProt P68400)
T7 construct: purchased DiscoverX
T7 sequence (P68400 whole entry): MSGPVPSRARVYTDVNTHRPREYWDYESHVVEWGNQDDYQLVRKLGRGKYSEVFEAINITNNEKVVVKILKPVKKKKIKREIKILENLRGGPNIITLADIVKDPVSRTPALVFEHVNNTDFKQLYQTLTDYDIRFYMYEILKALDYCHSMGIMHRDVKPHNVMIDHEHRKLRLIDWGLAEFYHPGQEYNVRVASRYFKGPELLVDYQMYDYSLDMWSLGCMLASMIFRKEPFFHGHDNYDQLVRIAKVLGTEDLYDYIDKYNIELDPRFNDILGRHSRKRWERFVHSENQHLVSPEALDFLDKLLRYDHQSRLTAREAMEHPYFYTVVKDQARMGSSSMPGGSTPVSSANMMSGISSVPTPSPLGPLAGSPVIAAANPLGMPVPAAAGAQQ

[8] = target: T8, CSNK1A1 (Homo sapiens, UniProt P48729)
T8 construct: purchased DiscoverX
T8 sequence (P48729 whole entry): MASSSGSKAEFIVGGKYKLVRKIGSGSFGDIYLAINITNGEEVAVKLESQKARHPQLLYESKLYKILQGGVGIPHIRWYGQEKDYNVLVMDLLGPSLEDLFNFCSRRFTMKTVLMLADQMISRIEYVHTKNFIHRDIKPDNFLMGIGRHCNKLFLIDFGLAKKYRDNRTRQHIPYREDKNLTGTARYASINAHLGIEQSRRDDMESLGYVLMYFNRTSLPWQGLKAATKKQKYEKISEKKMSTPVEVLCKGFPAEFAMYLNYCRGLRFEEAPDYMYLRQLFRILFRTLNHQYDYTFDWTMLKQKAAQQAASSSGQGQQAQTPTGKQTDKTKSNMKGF

[9] = target: T9, CDK7 (Homo sapiens, UniProt P50613)
T9 construct: purchased DiscoverX
T9 sequence (P50613 whole entry): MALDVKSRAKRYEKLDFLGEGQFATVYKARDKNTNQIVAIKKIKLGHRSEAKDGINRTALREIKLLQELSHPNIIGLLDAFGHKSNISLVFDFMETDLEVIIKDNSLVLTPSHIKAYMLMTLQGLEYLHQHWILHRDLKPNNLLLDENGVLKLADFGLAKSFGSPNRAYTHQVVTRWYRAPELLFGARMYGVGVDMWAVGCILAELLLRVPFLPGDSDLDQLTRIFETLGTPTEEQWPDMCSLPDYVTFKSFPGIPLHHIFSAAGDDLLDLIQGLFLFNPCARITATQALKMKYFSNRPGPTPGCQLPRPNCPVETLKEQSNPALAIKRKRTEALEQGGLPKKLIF

| Structure (SMILES) | remaining binding at 10 µM ([1]; ADCK4, 10 μM) | remaining binding at 10 µM ([2]; EGFR(L858R,T790M) mutant, 10 μM) | remaining binding at 10 µM ([3]; ROCK2, 10 μM) | remaining binding at 10 µM ([4]; PIK3C2G, 10 μM) | remaining binding at 10 µM ([5]; CLK3, 10 μM) | remaining binding at 10 µM ([6]; SGK, 10 μM) | remaining binding at 10 µM [1] | remaining binding at 10 µM [7] | remaining binding at 10 µM [2] | remaining binding at 10 µM [3] | remaining binding at 10 µM [4] | remaining binding at 10 µM [8] | remaining binding at 10 µM [9] | remaining binding at 10 µM [5] | remaining binding at 10 µM [6] | remaining binding at 10 µM ([7]; CSNK2A1, 10 μM) | remaining binding at 10 µM ([8]; CSNK1A1, 10 μM) | remaining binding at 10 µM ([9]; CDK7, 10 μM) |
| --- | --- | --- | --- | --- | --- | --- | --- | --- | --- | --- | --- | --- | --- | --- | --- | --- | --- | --- |
| COc1ccc2c(c1)[nH]c1c(C)nc(CO)cc12 [Compound 2-8, (1-Methyl-7-methoxy-9H-pyrido[3,4-b]indol-3-yl)methanol] | 84% | 79% | 88% | 36% | 36% | 31% |  |  |  |  |  |  |  |  |  |  |  |  |
| COc1ccc2c3ccnc(C)c3n(CCCc3noc(N)n3)c2c1 [Compound 20-13, 3-(3-(7-Methoxy-1-methyl-β-carbolin-9-yl)propyl)-5-amino-1,2,4-oxadiazole] |  |  |  |  |  |  | 100% | 49% | 9.2% | 86% | 1.2% | 33% | 51% | 54% | 90% |  |  |  |
| C#CCn1c2cc(OC)ccc2c2ccnc(C)c21 [Compound 20-23a, 3-(7-Methoxy-1-methyl-β-carbolin-9-yl)-propan-1-yne] |  |  |  |  |  |  | 9.3% |  | 100% | 16% | 38% |  |  | 19% | 63% | 46% | 13% | 0.8% |
| COc1ccc2c(c1)[nH]c1c(C)nccc12 [Harmine, reference compound] |  |  |  |  |  |  |  | 11% |  |  |  | 5% | 21% |  |  |  |  |  |

From US12421232B2, “Kinase inhibitor compounds and compositions and methods of use” (ICAHN SCHOOL OF MEDICINE AT MOUNT SINAI, priority 2018, dated 2025)
